# Experiment: in vitro
# Conditions: human, hela cells, % viability
row,SMILES,"viability at 28.5 h, 10 µM [%]"
1,COc1ccc2c(c1)CC(=O)NC21CCN(Cc2c(F)cccc2F)CC1 [CBK039835],93.8
2,Cn1c(CSCc2ccccc2)nnc1SCC(=O)c1ccc(Br)cc1 [CBK266565],94.9
3,O=C(Cc1ccccc1)N/N=C/c1nnco1 [CBK021274],121
4,CC(C)C(=O)N1CCC(n2nc(-c3cccs3)oc2=O)CC1 [CBK282422],103
5,O=C(CS(=O)(=O)c1ccccc1)Nc1cnc(-c2ccc(F)cc2)c(-c2ccoc2)n1 [CBK037168],107
6,CSc1ncc(CNC(=O)C2CCOc3ccccc3C2)n1C (stereo not drawn) [CBK307611],82.5
7,O=C(c1ccc(F)cc1F)N1CCC(O)(c2ccccn2)CC1 [CBK283671],107
8,CCN(CC)CC(=O)Nc1c2c(nc3ccccc13)N(C)CC2 [CBK023917C],110
9,O=S(=O)(Nc1cccc(-c2cnco2)c1)c1ccc(Cl)c(Cl)c1 [CBK067117],80.9
10,COc1ccc(C(C)C)cc1-c1nccnc1NCC1COC(C)(C)O1 (stereo not drawn) [CBK036930],101
11,CCN(CC(=O)NCc1cccnc1)S(=O)(=O)c1ccc(F)cc1 [CBK269503],85.3
12,O=C(NCCc1cccs1)Nc1ccc(F)c(F)c1 [CBK043951],87
13,O=C(CSc1nnc(CN2CCOCC2)n1-c1ccc(Cl)cc1)N1CCc2ccccc21 [CBK269008],97.9
14,COc1ccc2c(c1)C(NC(=O)C1CCCN(C)C1)CC(C)(C)O2 (stereo not drawn) [CBK307631],113
15,CC(C)(CN)CN(Cc1cccc(Cl)c1)C(=O)Nc1ccc2c(c1)OCO2 [CBK002482C],107
16,O=C(CN1CCCCC1)NCCNc1ccc([N+](=O)[O-])cc1Cl [CBK264922],115
17,Cc1ccnc(NS(=O)(=O)c2ccc(NC(=O)CSc3ccc(Cl)cc3)cc2)n1 [CBK265854],98.9
18,O=C(Nc1ccc2nonc2c1)N1CCOCC1 [CBK057530],90.8
19,Cc1nnc2ncc(-c3ccccc3C(=O)N(C(C)C)C(C)C)cn12 [CBK307393],94.7
20,Cc1cc(C)cc(Nc2cc(C)n3c(=O)[nH]nc3n2)c1 [CBK288380],91.8
21,Cc1cccc(C2CCCN(C(=O)Nc3cnn(C)c3)C2)c1 (stereo not drawn) [CBK306961],102
22,Cc1cccc(CNc2nccnc2-c2cccc(Cl)c2)c1 [CBK037527],109
23,C[C@H](Cn1nc2c(cc1=O)CCCCC2)NC(=O)C1CCCC1 [CBK284546],83.2

row,SMILES,"viability at 28.5 h, 10 µM [%]"
1,O=C(c1ccco1)N1CCC(n2c(=O)oc3ccc(Cl)cc32)CC1 [CBK284343],103
2,Cc1ccccc1CCNC(=O)CCc1c(C)nc2nc(N)nn2c1C [CBK304994],93.6
3,CC(C)[C@@H](Cn1nc(-c2cccs2)ccc1=O)NC(=O)C1CC1 [CBK284297],87.4
4,COCCNC(=O)c1ccc(-c2ccc3c(c2)OCO3)nc1N(C)C [CBK106050],101
5,O=C(O)c1ccccc1C(=O)OCCN1CCOCC1 [CBK261462],85.4
6,COC1CCC(C(=O)N2CCC(COc3ccc(-c4ccc(S(C)(=O)=O)cc4)cn3)CC2)CC1 (stereo not drawn) [CBK161995],80.3
7,CC(=O)Nc1ccc(-c2ccc(C(=O)N3CCN(C4CCN(C)CC4)CC3)cn2)cc1 [CBK158824],96.7
8,Cc1cc(C(=O)NCc2cccnc2N(C)C2CCCCC2)nn1C [CBK306577],69.6
9,CCCc1c(C(=O)N2CCN(c3ncccn3)CC2)cnn1-c1cc(Cl)cc(Cl)c1 [CBK107383],102
10,CCc1noc(C)c1C(=O)Nc1cccc(Cn2cc(Cl)cn2)c1 [CBK268127],97.6
11,COc1ccccc1C(CNC(=O)Nc1cc(C)on1)N1CCCC1 (stereo not drawn) [CBK304586],94.5
12,CC(=O)c1cccc(NC(=O)CN(c2cc(Cl)ccc2Cl)S(=O)(=O)c2ccc(C)cc2)c1 [CBK268897],90.6
13,O=C(CN1CCCCCC1)Nc1sc2c(c1C(=O)Nc1ccc(Br)cc1)CCC2 [CBK265076],109
14,COc1ccc(-c2cc(Nc3ccccc3)ncn2)cc1 [CBK090911],93.9
15,COc1ccc(C(NC(=O)Cn2cccnc2=O)C2CC(O)C2)cn1 (stereo not drawn) [CBK307527],83.4
16,Cc1ccc(NC(=O)c2cc(C)[nH]n2)c(C)n1 [CBK200387],83.8
17,O=C(c1ccco1)N1CCN(c2ccc(-c3cccc4cccnc34)cn2)CC1 [CBK037640],72.4
18,CC(=O)Nc1cccc(NC(=O)c2cccc(Cn3cc(Cl)cn3)c2)c1 [CBK265899],90.5
19,COc1cc(CN2CCCN(C)CC2)c([N+](=O)[O-])cc1OC [CBK261539],90.2
20,Cc1ccc(-c2cncc(N3CCN(CCO)CC3)n2)cc1C [CBK065912],102
21,Cc1cccc(-c2ncc(NC(=O)C3CC3)nc2-c2cccnc2)c1 [CBK037134],98.9
22,COc1ccc(NC(=O)C(C)Sc2nc(N)cc(O)n2)cc1 (stereo not drawn) [CBK265699],106
23,COc1ccc(-c2nc3ccccn3c2CN2CCC(C(=O)O)CC2)cc1OC [CBK287063],89.9

row,SMILES,"viability at 28.5 h, 10 µM [%]"
1,CC(Oc1ccc(F)cc1)C(=O)NCCN1CCOCC1 (stereo not drawn) [CBK265508],99.4
2,Cc1cccc(NC(=O)[C@@H](NC(=O)c2ccccc2F)C(C)C)c1C [CBK297509],85.4
3,C[S+]([O-])CCNC(=O)Cn1c(-c2cccs2)cc2cccnc21 (stereo not drawn) [CBK282556],89.3
4,CN1CCC(NC2(Cc3cc(-c4ccccn4)on3)COC2)CC1 [CBK289249],88.7
5,CCOc1ccc(-c2ccnc(C)n2)cc1C(=O)O [CBK306505],104
6,Cc1cc(C(=O)N2CCN(Cc3ccc4c(c3)OCO4)CC2)nn1C [CBK074832],111
7,C=CCN1C(=O)C2(CC(=O)N(CCOc3ccccc3)C2=O)c2ccccc21 (stereo not drawn) [CBK075159],101
8,c1ccc2c(c1)nc1n2CCN1CCN1CCCCC1 [CBK278283C],98.5
9,c1ccc(COc2ccc3[nH]c4c(c3c2)CCNC42CCCN(CC3CC3)C2)cc1 (stereo not drawn) [CBK040619],100
10,O=C(O)CCC(=O)Nc1nc(-c2ccc(Cl)cc2)cs1 [CBK299829],86.8
11,C#CCOc1ccc(/C=N/N=C(\N)c2nonc2N)cc1OC [CBK264765],109
12,COc1cc(C)nc(N2CCN(C(=O)CCc3ccsc3)CC2)n1 [CBK304572],87.6
13,CN1CCN(Cc2c(O)ccc3cc(-c4ccc(F)cc4)c(=O)oc23)CC1 [CBK267976],111
14,CC(C)(C)C(=O)N1CCC(n2nc(C3CC3)ccc2=O)CC1 [CBK284242],84.6
15,N[C@@H]1CCCN(C(=O)c2ccccc2)[C@H]1c1ccccc1F [CBK281405],106
16,CN1CCN(CC(=O)N2N=C(c3c(-c4ccccc4)c4cc(Cl)ccc4[nH]c3=O)CC2c2ccccc2)CC1 (stereo not drawn) [CBK267545],88.9
17,c1ccc(N2CCN(c3cncc(-c4cccs4)n3)CC2)nc1 [CBK065502],102
18,CSc1nc(C)cc(OCC(=O)Nc2ccc(Cl)cc2)n1 [CBK267525],94.8
19,CSc1nncc(-c2ccc(Cl)cc2)n1 [CBK028747],77.1
20,CC1=NC2c3ccsc3C=CC2S1 (stereo not drawn) [CBK008720],112
21,O=C(Cc1ccccc1Cl)N1CCC(O)(c2cccnc2F)CC1 [CBK284360],101
22,CC(=O)N1CCc2c(c3cccc(Br)c3n2Cc2ccccc2)C1 [CBK024402],93.9
23,O=C(Nc1ccc(Br)cc1)c1c(O)n2c3c(cccc3c1=O)CCC2 [CBK291207],103

row,SMILES,"viability at 28.5 h, 10 µM [%]"
1,S=c1[nH]nc2ccc(N3CCOCC3)nn12 [CBK008327],101
2,Cc1cccc(C(=O)NC(CC(C)C)c2nnc3n2CCNCC3)c1O (stereo not drawn) [CBK307191],99.6
3,O=C(NNC(=O)c1ccc2c(c1)C(=O)N(Cc1ccco1)C2=O)c1cccnc1 [CBK267403],91
4,COc1ccc(CN2C(=O)COC[C@@H]2[C@H](O)c2ccc(NC(C)=O)cc2)cc1 [CBK289674],95.6
5,CN1C(=O)COc2ccccc2C/C=C/C[C@@H]2[C@H]1CCCN2C(=O)CCCNc1ncccn1 [CBK292168],112
6,CC1CCN(C(=O)C[C@@H]2O[C@H](CNC(=O)C3CC3)[C@@H](O)[C@H]2O)CC1 [CBK288926],92
7,CCCC(=O)Nc1ccc(OCc2cnccn2)c(C(C)=O)c1 [CBK304766],102
8,O=S1(=O)CCC(c2nnc(C3(c4ccc(Br)cc4)CCOCC3)o2)C1 (stereo not drawn) [CBK305513],115
9,O=C(NC1CCCOC1)C1CCN(Cc2ccccc2Cl)CC1 (stereo not drawn) [CBK282520],107
10,O=C(CCC(=O)OCN1C(=O)c2ccccc2C1=O)Nc1ccc2ccccc2c1 [CBK265277],108
11,COCCC(=O)Nc1ccc(N2CCNCC2)nc1 [CBK004749T],92.2
12,CC(=O)Nc1ccc(-c2cc(Nc3ccc(NC(=O)c4ccc(N)cc4)cc3)ncn2)cc1 [CBK091103],97
13,CCN1CCCC1CNC(=O)c1ccc(-c2ccc(OC)cc2)nc1N(C)C(C)=O (stereo not drawn) [CBK076491],98.3
14,CC(=O)N1CCc2sccc2C1c1ccccc1NC(=O)c1ccco1 (stereo not drawn) [CBK286436],98.1
15,NS(=O)(=O)c1ccc(CCNC(=O)C2CC2)cc1 [CBK288407],107
16,OCCOc1ccccc1-c1nnco1 [CBK001972],92.6
17,CCOC(=O)c1[nH]c2ccccc2c1NC(=O)CS(=O)(=O)c1ccc(C)cc1 [CBK160162],94.3
18,CCCc1cc(C(=O)OC)c(NC(=O)CC2Nc3ccccc3NC2=O)s1 (stereo not drawn) [CBK269451],107
19,Cc1cc(COC(=O)Nc2ccc3nc(C)ccc3c2)cc(C)n1 [CBK200127],90.5
20,COCCNC(=O)Cn1c(-c2cccs2)cc2cccnc21 [CBK282554],109
21,Cc1cccn2c(CN3CCCOCC3)c(C(=O)N3CCOCC3)nc12 [CBK307144],111

# From article PMC12040169 (PLOS Biology, 2025)
